Experimental data taken from PubChem BioAssay AID2060883 (Molecular Pharmacology Branch, DTP, NCI, 2025).

Test system: 843782-103-R-J1-PDC complex spheroid viability
Assay: Anticancer human tumor 843782-103-R-J1-PDC patient-derived lung adenocarcinoma cell line growth inhibition [RAS]
Conditions: for IC50: curve of first compound; for viability, T/C: stronger effect = lower value
How it was run: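 Multi-cell-type spheroids: tumor cells plus HUVEC endothelial cells and mesenchymal stem cells. RAS-pathway inhibitors were combined with targeted agents, each dosed in half-log steps down from clinical Cmax, or from 10 microM when Cmax was unknown.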
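Note: viability read after seven days of compound exposure.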

`O=C(c1ccc(F)c(F)c1Nc1ccc(I)cc1F)N1CC(O)([C@@H]2CCCCN2)C1` + CCn1c(-c2cc(N3CCN(C)CC3)cnc2C(C)OC)c2c3cc(ccc31)-c1csc(n1)CC(NC(=O)C1CC1C)C(=O)N1CCCC(N1)C(=O)OCC(C)(C)C2 showed an IC50 (second compound 0.000949 µM) of 18 nM, an IC50 (second compound 0.003 µM) of 4.01 nM and an IC50 (second compound 0.00949 µM) of less than 3.16 nM. It also gave an IC50 (second compound 0.03 µM) of less than 3.16 nM, an IC50 (second compound 0.0949 µM) of less than 3.16 nM and an IC50 (second compound 0.3 µM) of less than 3.16 nM. It also gave a viability, T/C (second compound 0.000949 µM, first compound 0.00316 µM) of 68.7%, a viability, T/C (second compound 0.000949 µM, first compound 0.01 µM) of 63.4% and a viability, T/C (second compound 0.000949 µM, first compound 0.0316 µM) of 36.7%. The viability, T/C (second compound 0.000949 µM, first compound 0.1 µM) was 26.3%, the viability, T/C (second compound 0.000949 µM, first compound 0.316 µM) was 19% and the viability, T/C (second compound 0.000949 µM, first compound 1 µM) was 11%. The viability, T/C (second compound 0.003 µM, first compound 0.00316 µM) was 53%, the viability, T/C (second compound 0.003 µM, first compound 0.01 µM) was 37.5% and the viability, T/C (second compound 0.003 µM, first compound 0.0316 µM) was 31.5%. For the same compound, the viability, T/C (second compound 0.003 µM, first compound 0.1 µM) was 17.7%, the viability, T/C (second compound 0.003 µM, first compound 0.316 µM) was 11.7% and the viability, T/C (second compound 0.003 µM, first compound 1 µM) was 10.3%. It also gave a viability, T/C (second compound 0.00949 µM, first compound 0.00316 µM) of 30%, a viability, T/C (second compound 0.00949 µM, first compound 0.01 µM) of 19.3% and a viability, T/C (second compound 0.00949 µM, first compound 0.0316 µM) of 16.9%. It also gave a viability, T/C (second compound 0.00949 µM, first compound 0.1 µM) of 10.9%, a viability, T/C (second compound 0.00949 µM, first compound 0.316 µM) of 9.55% and a viability, T/C (second compound 0.00949 µM, first compound 1 µM) of 7.11%. It also gave a viability, T/C (second compound 0.03 µM, first compound 0.00316 µM) of 14.8%, a viability, T/C (second compound 0.03 µM, first compound 0.01 µM) of 15.3% and a viability, T/C (second compound 0.03 µM, first compound 0.0316 µM) of 10.1%. The viability, T/C (second compound 0.03 µM, first compound 0.1 µM) was 8.81%, the viability, T/C (second compound 0.03 µM, first compound 0.316 µM) was 8.18% and the viability, T/C (second compound 0.03 µM, first compound 1 µM) was 9.08%. The viability, T/C (second compound 0.0949 µM, first compound 0.00316 µM) was 13%, the viability, T/C (second compound 0.0949 µM, first compound 0.01 µM) was 10.8% and the viability, T/C (second compound 0.0949 µM, first compound 0.0316 µM) was 9.11%. It also gave a viability, T/C (second compound 0.0949 µM, first compound 0.1 µM) of 7.24%, a viability, T/C (second compound 0.0949 µM, first compound 0.316 µM) of 7.61% and a viability, T/C (second compound 0.0949 µM, first compound 1 µM) of 8.33%. The viability, T/C (second compound 0.3 µM, first compound 0.00316 µM) was 10.4%, the viability, T/C (second compound 0.3 µM, first compound 0.01 µM) was 8.56% and the viability, T/C (second compound 0.3 µM, first compound 0.0316 µM) was 7.38%. The viability, T/C (second compound 0.3 µM, first compound 0.1 µM) was 6.95%, the viability, T/C (second compound 0.3 µM, first compound 0.316 µM) was 8.88% and the viability, T/C (second compound 0.3 µM, first compound 1 µM) was 5.35%.
